Results on 13 compounds are retold here after paper PMC9482650, “Quantitative fragmentomics allow affinity mapping of interactomes” (Nature Communications, 2022).

One experiment addresses SNX27 PDZ (Homo sapiens, UniProt Q96L92). As to the kind of experiment: Holdup assay. Format: binding.
The target in a further experiment is DLG1_2 PDZ (Homo sapiens, UniProt Q12959). Briefly: Holdup assay. Format: binding.
The target in the next experiment is SCRIB_1 PDZ (Homo sapiens, UniProt Q14160). As to the kind of experiment: Holdup assay. It counts as binding.
The target in another experiment is T1, TX1BP3 PDZ (Homo sapiens, UniProt O14907).
T1 sequence (O14907 15-112 limits assumed): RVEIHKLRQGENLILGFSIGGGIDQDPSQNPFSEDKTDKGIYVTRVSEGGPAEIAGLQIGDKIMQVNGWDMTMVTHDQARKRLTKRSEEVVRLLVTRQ
As to the kind of experiment: Holdup assay. It counts as binding.

In another experiment the target is T2, SCRIB2 PDZ (Homo sapiens, UniProt Q14160).
T2 sequence (Q14160 862-950 limits assumed): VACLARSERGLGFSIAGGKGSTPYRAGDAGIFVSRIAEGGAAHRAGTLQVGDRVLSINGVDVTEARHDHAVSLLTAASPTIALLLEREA
As to the kind of experiment: Holdup assay. Format: binding.

The test system of another experiment is DLG1. Briefly: PBM-AP-MS from Jurkat extract. Format: binding, Homo sapiens. As to conditions: Jurkat extract; prey DLG1 (Q12959); PBM bait vs biotin control. The method, then:
(§1) For PBM-AP-MS experiments, 30 μl streptavidin resin was mixed with biotin or peptide at 50–60 μM concentration in 6–6.5 resin volume for 60 min to achieve resin saturation. For PDZ-AP-MS experiments, 30 μl streptavidin resin was mixed with biotinylated MBP or MBP-PDZ at 40-50 μM concentration in >1000× resin volume for 60 min to achieve resin saturation. After saturation, resins were washed a single time (ten resin volume, holdup buffer), and were depleted with biotin (1 mM biotin, 5–10 resin volume, 10 min). Finally, resins were washed two times. 0.5 ml 2 mg/ml cell lysate was added to the dry resin (1 mg total input) and were incubated at 4 °C for 2 h. Then, the beads were washed three times with 10 resin volume buffer containing: 50 mM TRIS pH 8.5, 150 mM NaCl, 1% TritonX-100, 10× complete EDTA-free protease inhibitor cocktail, 2 mM EDTA, 1 mM TCEP. Then, the beads were washed two times with ten resin volume buffer containing: 50 mM TRIS pH 8.5, 150 mM NaCl, 1 mM TCEP. Finally, captured protein was eluted from the resin in two steps and the eluted fractions were pooled. For each elution the beads were incubated for 30 min with three resin volume buffer containing: 20 mM TRIS pH8.5, 100 mM NaCl, 500 μM TCEP, 8 M Urea. Between each step, the beads were separated by mild centrifugation and the supernatant was removed by gentle pipetting.
(§2) Proteins were identified by database searching using SequestHT (Thermo Fisher Scientific) with Proteome Discoverer 2.4 software (PD2.4, Thermo Fisher Scientific) on human FASTA database downloaded from SwissProt (reviewed, release 2020_11_27, 20304 entries, https://www.uniprot.org/). Precursor and fragment mass tolerances were set at 7 ppm and 0.6 Da respectively, and up to two missed cleavages were allowed. Oxidation (M, +15.995 Da) was set as variable modification, and Carbamidomethylation (C, +57.021 Da) as fixed modification. Peptides and proteins were filtered with a false discovery rate at 1%. Label-free quantification was based on the extracted ion chromatography intensity of the peptides. All samples were measured in technical triplicates. The measured extracted ion chromatogram (XIC) intensities were normalized based on median intensities of the entire dataset to correct minor loading differences. For statistical tests and enrichment calculations, not detectable intensity values were treated with an imputation method, where the missing values were replaced by random values similar to the 10% of the lowest intensity values present in the entire dataset. Unpaired two-tailed T-test, assuming equal variance, were performed on obtained log2 XIC intensities. The detection threshold for enriched proteins in AP-MS experiments were analyzed above twofold enrichment with <0.01 P value. Then, proteins with PDZ-domains or PBMs were extracted from the list of enriched proteins. In case only a specific isoform of the detected protein contains a PBM, the identified peptide fragments were manually checked to check which isoform(s) were most likely detected. All raw LC-MS/MS data (from 165 runs) have been deposited to the ProteomeXchange via the PRIDE database with identifier PXD027743.

Experiment [1] relates to LIN7C. As to the kind of experiment: PBM-AP-MS from Jurkat extract. As to conditions: Jurkat extract; prey LIN7C (Q9NUP9); PBM bait vs biotin control. Format: binding, Homo sapiens. The method, then:
as §1, §2

The subject of another experiment is MAGI1. As to the kind of experiment: PBM-AP-MS from Jurkat extract. Format: binding, Homo sapiens. As to conditions: Jurkat extract; prey MAGI1 (Q96QZ7); PBM bait vs biotin control. How it is done: as §1, §2
The test system of experiment [2] is SCRIB. As to the kind of experiment: PBM-AP-MS from Jurkat extract. As to conditions: Jurkat extract; prey SCRIB (Q14160); PBM bait vs biotin control. Format: binding, Homo sapiens. How it is done: as §1, §2
The next experiment deals with LGALS7. Briefly: PBM-AP-MS from Jurkat extract. Format: binding, Homo sapiens. As to conditions: prey LGALS7 (P47929), PBM bait vs biotin control. An excerpt:
Supplement 41467_2022_33018_MOESM5_ESM.xlsx, sheet "Jurkat HPV82-E6" | column: -LOG(P-Value); Difference log2; Ratio HPV82/biot

For experiment [3], the system named is LIN7C. As to the kind of experiment: PBM-AP-MS from HeLa extract. Format: binding, Homo sapiens. As to conditions: prey LIN7C (Q9NUP9), PBM bait vs biotin control.
For experiment [4], the system named is SCRIB. Briefly: PBM-AP-MS from HeLa extract. Format: binding, Homo sapiens. As to conditions: prey SCRIB (Q14160), PBM bait vs biotin control.
For the next experiment, the system named is CPVL. Briefly: PBM-AP-MS from HeLa extract. Format: binding, Homo sapiens. As to conditions: prey CPVL (Q9H3G5), PBM bait vs biotin control.
Another experiment has as its system KRT83. As to the kind of experiment: PBM-AP-MS from HeLa extract. It counts as binding, Homo sapiens. As to conditions: prey KRT83 (P78385), PBM bait vs biotin control. The source says: (§3) Supplement 41467_2022_33018_MOESM5_ESM.xlsx, sheet "HeLa HPV82-E6" | column: -LOG(P-Value); Difference log2; Ratio HPV82E6/Biot
A further experiment relates to MPP7. As to the kind of experiment: PBM-AP-MS from HeLa extract. As to conditions: prey MPP7 (Q5T2T1), PBM bait vs biotin control. Format: binding, Homo sapiens.
Description: as §3

The target in a further experiment is DLG1_1 PDZ (Homo sapiens, UniProt Q12959). As to the kind of experiment: Holdup assay. It counts as binding.
The mark [5] stands for this setting: holdup affinity of the PBM peptide of the named protein, sheet PBMcomplexome, lower sub-table.
[6] abbreviates: holdup affinity of the PBM peptide of the named protein, sheet PBMcomplexome, lower sub-table, 3.5 appears to be the floor for no detectable binding, read-out: affinity of PBM to DLG1_2 (pKd) (converted).
[7] abbreviates: holdup affinity of the PBM peptide of the named protein, sheet PBMcomplexome, lower sub-table, 3.5 appears to be the floor for no detectable binding, read-out: affinity of PBM to SCRIB_1 (pKd) (converted).
The mark [8] stands for this setting: holdup affinity of the PBM peptide of the named protein, sheet PBMcomplexome, lower sub-table, 3.5 appears to be the floor for no detectable binding, read-out: affinity of PBM to TX1BP3 (pKd) (converted).
Setting [9] is: holdup affinity of the PBM peptide of the named protein, sheet PBMcomplexome, lower sub-table, 3.5 appears to be the floor for no detectable binding, read-out: affinity of PBM to SCRIB_2 (pKd) (converted).
[10] abbreviates: PBM motif of the named protein vs DLG1_2 PDZ, read-out: pKd values – domain-motif, DLG1_2 (converted).
The mark [11] stands for this setting: PBM motif of the named protein vs DLG1_1 PDZ, read-out: pKd values – domain-motif, DLG1_1 (converted).
Where [12] appears, read: PBM motif of the named protein vs SCRIB_1 PDZ, read-out: pKd values – domain-motif, SCRIB_1 (converted).
[13] abbreviates: PBM motif of the named protein vs TX1BP3 PDZ, read-out: pKd values – domain-motif, TX1BP3 (converted).
The mark [14] stands for this setting: PBM motif of the named protein vs SCRIB_2 PDZ, read-out: pKd values – domain-motif, SCRIB_2 (converted).

Where two headings read alike, the source gives them in different places. Primed or numbered codes have the meaning given here. Ends that are not written are not given here. * marks the point of attachment. Biotin = O=C1N[C@H]2[C@H](CS[C@H]2CCCCC(=O)*)N1; ttds″ = trioxatridecan-succinamic acid linker

Sequence of SCRIB_1 PDZ (Q14160 728-815 limits assumed): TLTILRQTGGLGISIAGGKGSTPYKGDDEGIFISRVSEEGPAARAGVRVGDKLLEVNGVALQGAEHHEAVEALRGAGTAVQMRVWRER

Consider GYDWGPATDL [TJP3/ZO3], for which the Kd is 229 µM at SNX27 PDZ (setting [5]); 245 µM at DLG1_2 PDZ (setting [6]); 174 µM at SCRIB_1 PDZ (setting [7]); 40.7 µM at TX1BP3 PDZ (setting [8]); 166 µM on SCRIB2 PDZ (setting [9]).
In the case of HPV82-E6 ({Biotin-ttds″}-PPRQRSETQV), the “Difference log2” value with DLG1 stood at 8.838; with LIN7C [1], 5.109; in the experiment on MAGI1, 5.746; with SCRIB [2], 7.318; with LGALS7 it was 4.513; with LIN7C [3], 7.066. In addition, the “Difference log2” value is 7.349 in the experiment with SCRIB [4], 3.939 with CPVL, 3.605 in the experiment with KRT83 and 3.556 in the experiment on MPP7. Besides, the Ratio bait/biot in the experiment on DLG1 amounted to 457.64; in the experiment on LIN7C [1] it was 34.5003; with MAGI1 it was 53.6695; in the experiment on SCRIB [2], 159.61; in the experiment on LGALS7 it was 22.8362; in the experiment with LIN7C [3], 134.006. Also, the “Ratio bait/biot” value in the experiment on SCRIB [4] was determined as 163.074; in the experiment with CPVL it was 15.3339; with KRT83 it was 12.1643; in the experiment on MPP7 it was 11.7654.
As to KQVVPFSSSV [GDA], the Kd at SNX27 PDZ was 295 µM; on DLG1_2 PDZ (setting [10]), 41.7 µM; on DLG1_1 PDZ (setting [11]), 129 µM; at SCRIB_1 PDZ (setting [12]) it was 309 µM; on TX1BP3 PDZ (setting [13]) it was 49 µM.
As to LESTTVGTSV [KARS1], the Kd is 35.5 µM at SNX27 PDZ; 45.7 µM on DLG1_2 PDZ (setting [10]); 53.7 µM on DLG1_1 PDZ (setting [11]); 155 µM on SCRIB_1 PDZ (setting [12]); 251 µM on TX1BP3 PDZ (setting [13]); 34.7 µM at SCRIB2 PDZ (setting [14]).
With KIEDVEITLV [FCHSD2], the Kd at SNX27 PDZ is 9.77 µM; at DLG1_2 PDZ (setting [10]) it was 50.1 µM; at DLG1_1 PDZ (setting [11]), 162 µM; on SCRIB_1 PDZ (setting [12]), 158 µM; on TX1BP3 PDZ (setting [13]), 105 µM.
As for `CC(C)C[C@H](NC(=O)[C@H](CC(=O)O)NC(=O)[C@@H](NC(=O)[C@H](CC(=O)O)NC(=O)[C@H](Cc1ccccc1)NC(=O)[C@H](Cc1c[nH]c2ccccc12)NC(=O)[C@H](C)NC(=O)[C@H](CC(C)C)NC(=O)[C@H](CCC(N)=O)NC(=O)[C@@H](N)CC(N)=O)[C@@H](C)O)C(=O)O` [CTNNB1], the Kd at SNX27 PDZ was 12.3 µM; at SCRIB_1 PDZ (setting [12]), 13.8 µM; at TX1BP3 PDZ (setting [13]), 1.02 µM; at SCRIB2 PDZ (setting [14]), 269 µM.
Regarding PELESKESVL [SLC1A4], the Kd at SNX27 PDZ was 3.72 µM; at DLG1_2 PDZ (setting [10]) it was 91.2 µM; on DLG1_1 PDZ (setting [11]), 309 µM; on SCRIB_1 PDZ (setting [12]), 66.1 µM; at TX1BP3 PDZ (setting [13]), 79.4 µM.
For the compound PKRSFIESNV [TANC1], the Kd at SNX27 PDZ was 3.09 µM; at DLG1_2 PDZ (setting [10]), 11 µM; on DLG1_1 PDZ (setting [11]), 20.4 µM; at SCRIB_1 PDZ (setting [12]), 6.31 µM; on TX1BP3 PDZ (setting [13]), 1.91 µM; on SCRIB2 PDZ (setting [14]) it was 13.2 µM.
Turning to PKRPFVESNV [TANC2], the Kd on SNX27 PDZ (setting [5]) was 15.8 µM; on DLG1_2 PDZ (setting [6]) it was 22.4 µM; at DLG1_1 PDZ (holdup affinity of the PBM peptide of the named protein, sheet PBMcomplexome, lower sub-table, 3.5 appears to be the floor for no detectable binding, read-out: affinity of PBM to DLG1_1 (pKd) (converted)), 49 µM; at SCRIB_1 PDZ (setting [7]), 17.8 µM; on TX1BP3 PDZ (setting [8]), 1.26 µM; at SCRIB2 PDZ (setting [9]), 25.7 µM.
For the compound PRVKPQRSKV [PPP1R13L], the Kd at TX1BP3 PDZ (setting [13]) is 151 µM.
The compound TESNLQTSSC [CGN] showed a Kd on SNX27 PDZ of 22.4 µM.
For the compound LCALPKVTTV [AGMAT], the Kd is 37.2 µM at SNX27 PDZ; 1.35 µM on DLG1_2 PDZ (setting [10]); 10.7 µM on DLG1_1 PDZ (setting [11]); 40.7 µM at SCRIB_1 PDZ (setting [12]); 85.1 µM at TX1BP3 PDZ (setting [13]).
On to IKAIVDLTGL [TRAF2], for which, at SNX27 PDZ (setting [5]), the Kd is 309 µM.
